From patent publication US20240384353A1, “METHODS OF TREATING PANCREATIC CANCER” (Fred Hutchinson Cancer Center, priority 2023, published 2024)

Test system: human PDA tumors
Test: Median survival by HMGA2/GATA6 status (IHC, tissue microarray of human PDA tumors) and first-line therapy
Assay type: in vivo
Details: first-line therapy, FIG. 12A-12B
Method: Expression levels of HMGA2 and GATA6 were determined separately in Tissue microarray comprising human PDA tumors from over 800 patients, along with matched (normal pancreatic tissue) controls and correlated to clinical data (stage at diagnosis, treatment history). These samples were stained and scored for HMGA2 (FIG. 9A) and GATA6.

For `Nc1ccn([C@@H]2O[C@H](CO)[C@@H](O)C2(F)F)c(=O)n1` [Gemcitabine], the “overall median survival of HMGA2^high/GATA6^low tumors compared to HMGA2^low/GATA6^high tumors” value was “overall low median survival”.
